# From patent US20250122225A1, “MASP-2 INHIBITORS AND METHODS OF USE” (Omeros Corporation, priority 2023, published 2025)
# pKi: −log10 of the molar value. Where a name gives a salt, the structure may show the parent alone.
# Legend:
# human α-thrombin = biological target: T1, human α-thrombin (Homo sapiens, UniProt P00734); test: Enzymatic assay for thrombin (fluorogenic peptide substrate Boc-VPR-AMC); format: biochemical
# T1 construct: enzyme (human α-thrombin (BioPharm® Lab.)) in assay buffer; purchased BioPharm® Lab
# Outline: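 Human α-thrombin was run with the fluorogenic substrate Boc-VPR-AMC in 20 mM Hepes pH 7.4, 140 mM NaCl, 0.1% Tween 20 at room temperature for 20 min, then stopped with 0.1 M acetic acid. % activity was normalized to DMSO and no-enzyme controls. Under linear conditions IC50 equalled Ki, except for tight-binding inhibitors.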
# MASP-2 (CCP1-CCP2-SP) = biological target: T2, MASP-2 (CCP1-CCP2-SP) (Homo sapiens, UniProt O00187); test: Enzymatic assay for MASP-2 inhibitory activity (fluorogenic substrate); format: biochemical
# T2 construct: 15 μL of Enzyme MASP-2 (CCP1-CCP2-SP) in Assay Buffer
# Outline: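 MASP-2 (CCP1-CCP2-SP) cleaved a fluorogenic substrate based on the C2 cleavage site in 20 mM HEPES pH 7.4, 140 mM NaCl, 0.1% Tween 20 at room temperature. After 20 min the reaction was stopped with 0.1 M acetic acid and fluorescence read. % activity was normalized to DMSO-only and no-enzyme controls; IC50 taken as Ki.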
# T2 sequence (O00187 445-686 limits assumed): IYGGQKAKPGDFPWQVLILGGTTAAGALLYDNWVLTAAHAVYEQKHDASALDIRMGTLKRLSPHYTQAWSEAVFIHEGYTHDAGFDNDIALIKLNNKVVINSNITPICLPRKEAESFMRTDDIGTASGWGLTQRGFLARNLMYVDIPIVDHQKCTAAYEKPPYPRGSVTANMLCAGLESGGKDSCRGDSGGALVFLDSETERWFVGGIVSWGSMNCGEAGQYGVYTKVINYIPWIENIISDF
# T2 sequence (O00187 287-444 partner limits assumed): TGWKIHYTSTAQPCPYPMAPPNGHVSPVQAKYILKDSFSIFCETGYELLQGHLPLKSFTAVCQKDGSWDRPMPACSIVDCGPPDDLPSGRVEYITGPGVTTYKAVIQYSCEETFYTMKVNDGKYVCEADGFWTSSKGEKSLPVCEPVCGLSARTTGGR
pKi (human α-thrombin),pKi (MASP-2 (CCP1-CCP2-SP)),Structure (SMILES)
> 6.30,> 6.30,"CCc1cccc([C@@H](CC)Nc2ncc3n(c2=O)[C@H](C(=O)NCc2cc4c(s2)CNC4)CC3)c1 [Compound 268, (S)-N-((5,6-dihydro-4H-thieno[2,3-c]pyrrol-2-yl)methyl)-3-(((R)-1-(3-ethylphenyl)propyl)amino)-4-oxo-4,6,7,8-tetrahydropyrrolo[1,2-a]pyrazine-6-carboxamide trifluoroacetate]"
5.00 to 5.60,> 6.30,"C[C@@H](NC(=O)[C@@H]1CCc2cnc(N[C@@H](c3ccccc3)C(C)(C)C)c(=O)n21)c1cc2c(s1)CNC2 [Compound 269, (S)-N-((R)-1-(5,6-dihydro-4H-thieno[2,3-c]pyrrol-2-yl)ethyl)-3-(((R)-2,2-dimethyl-1-phenylpropyl)amino)-4-oxo-4,6,7,8-tetrahydropyrrolo[1,2-a]pyrazine-6-carboxamide trifluoroacetate]"
4.60 to 5.00,> 6.30,"Cc1ccc(F)cc1CNc1ncc2n(c1=O)[C@H](C(=O)N[C@H](C)c1ccc(N)nc1)CC2 [Compound 196, (S)-N-((R)-1-(6-aminopyridin-3-yl)ethyl)-3-((5-fluoro-2-methylbenzyl)amino)-4-oxo-4,6,7,8-tetrahydropyrrolo[1,2-a]pyrazine-6-carboxamide trifluoroacetate]"
5.00 to 5.60,> 6.30,"C[C@@H]1C[C@@H](C(=O)NCc2cc3cnccc3[nH]2)n2c1cnc(NCc1ccccc1)c2=O [Compound 227, trifluoroacetate]"
< 4.60,> 6.30,"O=C(NCc1cc2cnccc2[nH]1)[C@@H]1CCc2c(Cl)nc(NCC3CCOCC3)c(=O)n21 [Compound 101, trifluoroacetate]"
< 4.60,> 6.30,"CC[C@H]1C[C@@H](C(=O)NCc2cc3cnccc3[nH]2)n2c1c(Cl)nc(NCc1cc(C)cc(C)c1)c2=O [Compound 160, (6S,8S)-N-((1H-pyrrolo[3,2-c]pyridin-2-yl)methyl)-1-chloro-3-((3,5-dimethylbenzyl)amino)-8-ethyl-4-oxo-4,6,7,8-tetrahydropyrrolo[1,2-a]pyrazine-6-carboxamide]"
5.60 to 6.30,> 6.30,CCc1cccc(CNc2nc(Cl)c3n(c2=O)[C@H](C(=O)NCc2ccc(N)nc2C)CC3)c1 [Compound 4]
5.00 to 5.60,5.60 to 6.30,"Cc1cc(C)cc(CNc2ncc3n(c2=O)[C@H](C(=O)NCc2cccc4[nH]ncc24)CC3)c1 [Compound 282, (S)-N-((1H-indazol-4-yl)methyl)-3-((3,5-dimethylbenzyl)amino)-4-oxo-4,6,7,8-tetrahydropyrrolo[1,2-a]pyrazine-6-carboxamide]"
5.60 to 6.30,> 6.30,"Cc1nc(N)ccc1CNC(=O)[C@@H]1CCc2c(Cl)nc(NCc3cccc(CO)c3)c(=O)n21 [Compound 5, (S)-N-((6-amino-2-methylpyridin-3-yl)methyl)-1-chloro-3-((3-(hydroxymethyl)benzyl)amino)-4-oxo-4,6,7,8-tetrahydropyrrolo[1,2-a]pyrazine-6-carboxamide]"
> 6.30,> 6.30,"Cc1ccc(C)c([C@@H](C)Nc2ncc3n(c2=O)[C@H](C(=O)NCc2cc4c(s2)CNC4)CC3)c1 [Compound 253, (S)—N-((5,6-dihydro-4H-thieno[2,3-c]pyrrol-2-yl)methyl)-3-(((R)-1-(2,5-dimethylphenyl)ethyl)amino)-4-oxo-4,6,7,8-tetrahydropyrrolo[1,2-a]pyrazine-6-carboxamide]"
5.00 to 5.60,> 6.30,"Cc1nc(N)ccc1CNC(=O)[C@H]1CCc2c(Cl)nc(NCc3ccccc3)c(=O)n21 [Compound 135, (R)-N-((6-amino-2-methylpyridin-3-yl)methyl)-3-(benzylamino)-1-chloro-4-oxo-4,6,7,8-tetrahydropyrrolo[1,2-a]pyrazine-6-carboxamide]"
5.60 to 6.30,> 6.30,O=C(NCc1cc2cnccc2[nH]1)[C@@H]1CCc2c(Cl)nc(NCC3(c4ccccc4)CC3)c(=O)n21 [Compound 245]
5.60 to 6.30,> 6.30,O=C(NCc1cc2cnccc2[nH]1)[C@@H]1CCc2c(C3CC3)nc(NCCc3ccccc3)c(=O)n21 [Compound 247]
< 4.60,> 6.30,"Cc1cc(F)cc(CNc2nc(-c3cnn(C(F)F)c3)c3n(c2=O)[C@H](C(=O)NCc2ccc(N)nc2)CC3)c1 [Compound 216, (S)-N-((6-aminopyridin-3-yl)methyl)-1-(1-(difluoromethyl)-1H-pyrazol-4-yl)-3-((3-fluoro-5-methylbenzyl)amino)-4-oxo-4,6,7,8-tetrahydropyrrolo[1,2-a]pyrazine-6-carboxamide trifluoroacetate]"
5.60 to 6.30,> 6.30,O=C(NCc1cc2cnccc2[nH]1)[C@@H]1CCc2c(Cl)nc(NCCc3ccccc3)c(=O)n21 [Compound 249]
5.00 to 5.60,> 6.30,"O=C(NCc1cc2cnccc2[nH]1)[C@@H]1CCc2cnc(NCc3cccc(-c4ccccc4)c3)c(=O)n21 [Compound 147, (S)—N-((1H-pyrrolo[3,2-c]pyridin-2-yl)methyl)-3-(([1,1′-biphenyl]-3-ylmethyl)amino)-4-oxo-4,6,7,8-tetrahydropyrrolo[1,2-a]pyrazine-6-carboxamide]"
5.60 to 6.30,> 6.30,"Cc1cc(F)cc(CNc2ncc3n(c2=O)[C@H](C(=O)NCc2cc4cnccc4[nH]2)CC3)c1 [Compound 70, (S)-N-((1H-pyrrolo[3,2-c]pyridin-2-yl)methyl)-3-((3-fluoro-5-methylbenzyl)amino)-4-oxo-4,6,7,8-tetrahydropyrrolo[1,2-a]pyrazine-6-carboxamide]"
5.60 to 6.30,> 6.30,"Cc1cc(F)cc(CNc2ncc3n(c2=O)[C@H](C(=O)NCc2cnc(N)c(Cl)c2)CC3)c1 [Compound 192, (S)-N-((6-amino-5-chloropyridin-3-yl)methyl)-3-((3-fluoro-5-methylbenzyl)amino)-4-oxo-4,6,7,8-tetrahydropyrrolo[1,2-a]pyrazine-6-carboxamide trifluoroacetate]"
5.00 to 5.60,> 6.30,"Cc1cc(C)cc(CNc2nc(Cl)c3n(c2=O)[C@H](C(=O)NCc2ccc(N)nc2C)CC3)c1 [Compound 24, trifluoroacetate]"
5.00 to 5.60,> 6.30,"Cc1cccc(C2(Nc3nc(Cl)c4n(c3=O)[C@H](C(=O)NCc3cc5cnccc5[nH]3)CC4)CC2)c1 [Compound 110, (S)—N-((1H-pyrrolo[3,2-c]pyridin-2-yl)methyl)-1-chloro-4-oxo-3-((1-(m-tolyl)cyclopropyl)amino)-4,6,7,8-tetrahydropyrrolo[1,2-a]pyrazine-6-carboxamide trifluoroacetate]"
> 6.30,> 6.30,"CCc1cccc(CNc2ncc3n(c2=O)[C@H](C(=O)NCc2cc4cnccc4[nH]2)CC3)c1 [Compound 45, (S)-N-((1H-pyrrolo[3,2-c]pyridin-2-yl)methyl)-3-((3-ethylbenzyl)amino)-4-oxo-4,6,7,8-tetrahydropyrrolo[1,2-a]pyrazine-6-carboxamide]"
> 6.30,> 6.30,"CC[C@H]1C[C@@H](C(=O)NCc2ccc(N)nc2C)n2c1cnc(NCc1ccccc1)c2=O [Compound 154, (6S,8S)-N-((6-amino-2-methylpyridin-3-yl)methyl)-3-(benzylamino)-8-ethyl-4-oxo-4,6,7,8-tetrahydropyrrolo[1,2-a]pyrazine-6-carboxamide]"
5.00 to 5.60,> 6.30,"O=C(NCc1cc2cnccc2[nH]1)[C@@H]1C[C@H](Cc2ccccc2)c2cnc(NC3CCC3)c(=O)n21 [Compound 142, (6S,8S)-N-((1H-pyrrolo[3,2-c]pyridin-2-yl)methyl)-8-benzyl-3-(cyclobutylamino)-4-oxo-4,6,7,8-tetrahydropyrrolo[1,2-a]pyrazine-6-carboxamide]"
5.00 to 5.60,> 6.30,"CCc1cccc(CNc2nc(Cl)c3n(c2=O)[C@H](C(=O)NCc2cc4cnccc4[nH]2)CC3)c1 [Compound 3, (S)-N-((1H-pyrrolo[3,2-c]pyridin-2-yl)methyl)-1-chloro-3-((3-ethylbenzyl)amino)-4-oxo-4,6,7,8-tetrahydropyrrolo[1,2-a]pyrazine-6-carboxamide]"
4.60 to 5.00,> 6.30,"Cc1cc(C)cc(CNc2ncc3n(c2=O)[C@H](C(=O)NCc2cc4cnc(C)cc4[nH]2)CC3)c1 [Compound 50, (S)-3-((3,5-dimethylbenzyl)amino)-N-((6-methyl-1H-pyrrolo[3,2-c]pyridin-2-yl)methyl)-4-oxo-4,6,7,8-tetrahydropyrrolo[1,2-a]pyrazine-6-carboxamide]"
4.60 to 5.00,> 6.30,"Cc1ccccc1CNc1ncc2n(c1=O)[C@H](C(=O)N[C@H](C)c1ccc(N)nc1)CC2 [Compound 202, (S)-N-((R)-1-(6-aminopyridin-3-yl)ethyl)-3-((2-methylbenzyl)amino)-4-oxo-4,6,7,8-tetrahydropyrrolo[1,2-a]pyrazine-6-carboxamide]"
5.00 to 5.60,> 6.30,"Cc1ccc(F)c(CNc2nc(C#N)c3n(c2=O)[C@H](C(=O)NCc2ccc(N)nc2C)CC3)c1 [Compound 223, trifluoroacetate]"
4.60 to 5.00,> 6.30,"Cc1ccc(F)c(CNc2ncc3n(c2=O)[C@H](C(=O)NCc2cc4cnc(C)cc4[nH]2)CC3)c1 [Compound 80, (S)-3-((2-fluoro-5-methylbenzyl)amino)-N-((6-methyl-1H-pyrrolo[3,2-c]pyridin-2-yl)methyl)-4-oxo-4,6,7,8-tetrahydropyrrolo[1,2-a]pyrazine-6-carboxamide]"
